Source: ChEMBL document CHEMBL1909046, “DrugMatrix in vitro pharmacology data”

Assays:
Vasopressin V1a receptor = Vasopressin V1a receptor (Homo sapiens, UniProt P37288); format: cell membranes, Membrane; settings: hek293; further: in other assays of this panel Not Active means under 50% inhibition at 10 µM
D(3) dopamine receptor = D(3) dopamine receptor (Homo sapiens, UniProt P35462); test: DRUGMATRIX: Dopamine D3 radioligand binding (ligand: [3H] Spiperone); format: cell membranes, CHO, Membrane
Chain of D(3) dopamine receptor (P35462 whole entry): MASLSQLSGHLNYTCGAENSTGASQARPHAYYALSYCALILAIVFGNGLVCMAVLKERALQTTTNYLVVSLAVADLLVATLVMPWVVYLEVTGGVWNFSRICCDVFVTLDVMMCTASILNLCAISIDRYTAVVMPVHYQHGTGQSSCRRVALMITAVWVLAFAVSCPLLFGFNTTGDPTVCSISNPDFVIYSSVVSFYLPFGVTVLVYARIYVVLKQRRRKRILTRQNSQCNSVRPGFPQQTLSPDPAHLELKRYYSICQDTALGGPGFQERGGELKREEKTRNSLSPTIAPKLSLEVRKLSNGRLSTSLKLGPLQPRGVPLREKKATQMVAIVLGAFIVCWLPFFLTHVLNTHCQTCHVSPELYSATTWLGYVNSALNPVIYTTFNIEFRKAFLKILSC

[1] = biological target: Sodium-dependent dopamine transporter (Homo sapiens, UniProt Q01959); test: DRUGMATRIX: Dopamine Transporter radioligand binding (ligand: [125I] RTI-55); format: cell membranes, CHO-K1, Membrane; settings: cho-k1; Not Active = under 50% inhibition at 10 µM
Chain of Sodium-dependent dopamine transporter (Q01959 whole entry): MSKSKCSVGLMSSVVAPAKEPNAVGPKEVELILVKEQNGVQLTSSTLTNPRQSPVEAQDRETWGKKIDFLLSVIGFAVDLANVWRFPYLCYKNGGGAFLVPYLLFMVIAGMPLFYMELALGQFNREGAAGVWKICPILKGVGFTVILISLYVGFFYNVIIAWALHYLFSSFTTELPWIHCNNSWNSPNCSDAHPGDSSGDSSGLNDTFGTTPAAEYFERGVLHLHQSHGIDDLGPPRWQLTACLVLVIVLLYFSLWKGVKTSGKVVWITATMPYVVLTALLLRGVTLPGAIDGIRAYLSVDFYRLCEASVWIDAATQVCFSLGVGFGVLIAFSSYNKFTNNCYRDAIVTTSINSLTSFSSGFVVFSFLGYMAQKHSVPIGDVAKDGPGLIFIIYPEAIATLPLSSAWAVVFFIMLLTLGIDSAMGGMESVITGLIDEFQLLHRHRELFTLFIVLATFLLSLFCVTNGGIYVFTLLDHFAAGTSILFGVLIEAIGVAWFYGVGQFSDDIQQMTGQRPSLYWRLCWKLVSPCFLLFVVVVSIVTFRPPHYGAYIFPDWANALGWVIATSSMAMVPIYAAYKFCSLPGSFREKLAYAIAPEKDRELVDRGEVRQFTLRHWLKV

Endothelin-1 receptor = biological target: T1, Endothelin-1 receptor (Homo sapiens, UniProt P25101); format: cell membranes, Membrane; settings: cho-k1; further: in other assays of this panel Not Active means under 50% inhibition at 10 µM
T1 sequence (P25101 whole entry): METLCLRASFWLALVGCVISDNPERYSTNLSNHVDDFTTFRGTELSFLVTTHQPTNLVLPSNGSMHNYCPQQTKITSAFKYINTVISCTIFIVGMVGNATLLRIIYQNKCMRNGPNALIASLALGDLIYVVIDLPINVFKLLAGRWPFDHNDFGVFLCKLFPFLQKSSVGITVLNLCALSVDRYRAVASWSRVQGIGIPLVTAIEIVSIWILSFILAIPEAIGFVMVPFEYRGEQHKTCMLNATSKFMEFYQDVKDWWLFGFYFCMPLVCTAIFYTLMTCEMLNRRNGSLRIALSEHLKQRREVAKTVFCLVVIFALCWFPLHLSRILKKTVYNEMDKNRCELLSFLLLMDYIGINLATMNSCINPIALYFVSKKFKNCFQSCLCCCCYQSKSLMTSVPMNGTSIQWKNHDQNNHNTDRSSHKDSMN

[2] = DRUGMATRIX: Phorbol Ester radioligand binding (ligand: [3H] PDBu); format: cell membranes, Mus musculus, ICR, Brain, Membrane; settings: Not Active = under 50% inhibition at 10 µM
Neutrophil elastase = biological target: T2, Neutrophil elastase (Homo sapiens, UniProt P08246); format: tissue-based;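 further: inhibition of neutrophil elastase enzyme activity, measured with a p-nitroanilide-linked peptide substrate; in other assays of this panel Not Active means under 50% inhibition at 10 µM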
T2 sequence (P08246 whole entry): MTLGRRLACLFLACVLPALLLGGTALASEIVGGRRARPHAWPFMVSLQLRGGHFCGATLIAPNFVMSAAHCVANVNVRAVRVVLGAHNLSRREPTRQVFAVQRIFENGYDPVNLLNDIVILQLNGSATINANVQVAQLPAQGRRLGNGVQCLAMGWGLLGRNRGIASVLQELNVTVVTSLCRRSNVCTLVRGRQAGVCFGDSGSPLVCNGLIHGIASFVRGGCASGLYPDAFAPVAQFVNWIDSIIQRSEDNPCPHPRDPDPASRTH

Chain of Vasopressin V1a receptor (P37288 whole entry): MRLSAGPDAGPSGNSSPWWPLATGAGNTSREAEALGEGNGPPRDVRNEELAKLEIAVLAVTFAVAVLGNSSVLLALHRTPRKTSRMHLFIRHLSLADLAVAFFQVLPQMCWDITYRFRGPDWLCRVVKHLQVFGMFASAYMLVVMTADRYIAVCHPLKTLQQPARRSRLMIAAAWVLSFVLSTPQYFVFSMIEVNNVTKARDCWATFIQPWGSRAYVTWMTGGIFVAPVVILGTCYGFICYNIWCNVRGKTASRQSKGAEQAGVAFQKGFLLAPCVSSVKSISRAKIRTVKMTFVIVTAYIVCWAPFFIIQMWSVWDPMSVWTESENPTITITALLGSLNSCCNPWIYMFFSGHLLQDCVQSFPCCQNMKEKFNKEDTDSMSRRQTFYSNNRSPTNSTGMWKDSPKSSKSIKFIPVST

Row | Compound | IC50 (Vasopressin V1a receptor) | IC50 (D(3) dopamine receptor; cho) | IC50 [1] | IC50 (Endothelin-1 receptor) | IC50 [2] | Ki [2] | IC50 (Neutrophil elastase) | IC50 (D(3) dopamine receptor; read-out: IC50) [nM] | Ki (D(3) dopamine receptor; read-out: Ki) [nM]
1 | O=C(c1ccccc1C(F)(F)F)N1CCC(Cc2ccccc2)CC1 | Not Active | Not Active | Not Active | Not Active | Not Active | Not Active | Not Active | – | –
2 | O=C/C=C/c1ccccc1 | Not Active | Not Active | Not Active | Not Active | Not Active | Not Active | Not Active | – | –
3 | Nc1ccc2c3c(cccc13)C(=O)NC2=O | Not Active | Not Active | Not Active | Not Active | Not Active | Not Active | Not Active | – | –
4 | COc1ccc(C(=O)N2CCCC2=O)cc1 | Not Active | Not Active | Not Active | Not Active | Not Active | Not Active | Not Active | – | –
5 | O=c1cnn([C@@H]2O[C@H](CO)[C@@H](O)[C@H]2O)c(=O)[nH]1 [6-AZAURIDINE] | Not Active | Not Active | Not Active | Not Active | Not Active | Not Active | Not Active | – | –
6 | CC[C@H](C)[C@H]1O[C@]2(C=C[C@@H]1C)C[C@@H]1C[C@@H](C/C=C(\C)[C@@H](O[C@H]3C[C@H](OC)[C@@H](O[C@H]4C[C@H](OC)[C@@H](O)[C@H](C)O4)[C@H](C)O3)[C@@H](C)/C=C/C=C3\CO[C@@H]4[C@H](O)C(C)=C[C@@H](C(=O)O1)[C@]34O)O2.CO[C@H]1C[C@H](O[C@H]2[C@H](C)O[C@@H](O[C@@H]3/C(C)=C/C[C@@H]4C[C@@H](C[C@]5(C=C[C@H](C)[C@@H](C(C)C)O5)O4)OC(=O)[C@@H]4C=C(C)[C@@H](O)[C@H]5OC/C(=C\C=C\[C@@H]3C)[C@]54O)C[C@@H]2OC)O[C@@H](C)[C@@H]1O [ABAMECTIN] | Not Active | Not Active | Not Active | Not Active | Not Active | Not Active | Not Active | – | –
7 | NCCCC(O)(P(=O)(O)O)P(=O)(O)O [ALENDRONIC ACID] | Not Active | Not Active | Not Active | Not Active | Not Active | Not Active | Not Active | – | –
8 | Cc1nnc2n1-c1ccc(Cl)cc1C(c1ccccc1)=NC2 [ALPRAZOLAM] | Not Active | Not Active | Not Active | Not Active | Not Active | Not Active | Not Active | – | –
9 | Cn1c(=O)c2[nH]cnc2n(C)c1=O.Cn1c(=O)c2[nH]cnc2n(C)c1=O.NCCN [AMINOPHYLLINE] | Not Active | Not Active | Not Active | Not Active | Not Active | Not Active | Not Active | – | –
10 | CCC1(CCC(C)C)C(=O)NC(=O)NC1=O [AMOBARBITAL] | Not Active | Not Active | Not Active | Not Active | Not Active | Not Active | Not Active | – | –
11 | CC1(C)S[C@@H]2[C@H](NC(=O)[C@H](N)c3ccccc3)C(=O)N2[C@H]1C(=O)O [AMPICILLIN] | Not Active | Not Active | Not Active | Not Active | Not Active | Not Active | Not Active | – | –
12 | COc1ccc(C2C(=O)c3ccccc3C2=O)cc1 [ANISINDIONE] | Not Active | Not Active | Not Active | Not Active | Not Active | Not Active | Not Active | – | –
13 | O=C1O[C@H]([C@@H](O)CO)C(O)=C1O [ASCORBIC ACID] | Not Active | Not Active | Not Active | Not Active | Not Active | Not Active | Not Active | – | –
14 | CN1[C@@H]2CC[C@H]1C[C@@H](OC(=O)C(CO)c1ccccc1)C2 (stereo partly drawn) [ATROPINE] | Not Active | Not Active | Not Active | Not Active | Not Active | Not Active | Not Active | – | –
15 | CC(C(=O)O)c1ccc2oc(-c3ccc(Cl)cc3)nc2c1 (stereo not drawn) [BENOXAPROFEN] | Not Active | Not Active | Not Active | Not Active | Not Active | Not Active | Not Active | – | –
16 | COc1ccc2cc3[n+](cc2c1OC)CCc1cc2c(cc1-3)OCO2.[Cl-] [BERBERINE CHLORIDE] | Not Active | Not Active | Not Active | Not Active | Not Active | Not Active | Not Active | – | –
17 | O=C(O)CCNC(=O)c1ccccc1 [BETAMIPRON] | Not Active | Not Active | Not Active | Not Active | Not Active | Not Active | Not Active | – | –
18 | CC(=O)Oc1ccc(C(c2ccc(OC(C)=O)cc2)c2ccccn2)cc1 [BISACODYL] | Not Active | Not Active | – | Not Active | Not Active | Not Active | Not Active | – | –
19 | Cc1cc2c(OCC(CNC(C)(C)C)OC(=O)c3ccccc3)cccc2[nH]1 (stereo not drawn) [BOPINDOLOL] | Not Active | Not Active | Not Active | Not Active | Not Active | Not Active | Not Active | – | –
20 | Brc1c(NC2=NCCN2)ccc2nccnc12 [BRIMONIDINE] | Not Active | Not Active | Not Active | Not Active | Not Active | Not Active | Not Active | – | –
21 | CN(C)[C@@H]1C(O)=C(C(N)=O)C(=O)[C@@]2(O)C(O)=C3C(=O)c4c(O)ccc(Cl)c4[C@@](C)(O)[C@H]3C[C@@H]12 [CHLORTETRACYCLINE] | Not Active | Not Active | Not Active | Not Active | Not Active | Not Active | Not Active | – | –
22 | CN/C(=N\CCSCc1nc[nH]c1C)NC#N [CIMETIDINE] | Not Active | Not Active | Not Active | Not Active | Not Active | Not Active | Not Active | – | –
23 | COc1cc(N)c(Cl)cc1C(=O)NC1CCN(CCCOc2ccc(F)cc2)CC1OC (stereo not drawn) [CISAPRIDE] | Not Active | – | Not Active | Not Active | Not Active | Not Active | Not Active | 144 | 49
24 | CCC(=O)O[C@]1(C(=O)CCl)[C@@H](C)C[C@H]2[C@@H]3CCC4=CC(=O)C=C[C@]4(C)[C@@]3(F)[C@@H](O)C[C@@]21C [CLOBETASOL PROPIONATE] | Not Active | Not Active | Not Active | Not Active | Not Active | Not Active | Not Active | – | –
25 | O=C1CN=C(c2ccccc2Cl)c2cc([N+](=O)[O-])ccc2N1 [CLONAZEPAM] | Not Active | Not Active | Not Active | Not Active | Not Active | Not Active | Not Active | – | –
26 | Nc1ccn([C@@H]2O[C@H](CO)[C@@H](O)[C@@H]2O)c(=O)n1 [CYTARABINE] | Not Active | Not Active | Not Active | Not Active | Not Active | Not Active | Not Active | – | –
27 | C[C@@H]1C[C@H]2[C@@H]3CCC4=CC(=O)C=C[C@]4(C)[C@@]3(F)[C@@H](O)C[C@]2(C)[C@H]1C(=O)CO [DESOXIMETASONE] | Not Active | Not Active | Not Active | Not Active | Not Active | Not Active | Not Active | – | –
28 | C[C@@H]1C[C@H]2[C@@H]3CCC4=CC(=O)C=C[C@]4(C)[C@@]3(F)[C@@H](O)C[C@]2(C)[C@@]1(O)C(=O)CO [DEXAMETHASONE] | Not Active | Not Active | Not Active | Not Active | Not Active | Not Active | Not Active | – | –
29 | NC(=O)C[S+]([O-])C(c1ccccc1)c1ccccc1 (stereo not drawn) [MODAFINIL] | Not Active | Not Active | – | Not Active | Not Active | Not Active | Not Active | – | –
30 | CCCNCC(O)COc1ccccc1C(=O)CCc1ccccc1 (stereo not drawn) [PROPAFENONE] | Not Active | Not Active | – | Not Active | Not Active | Not Active | Not Active | – | –
